We go through 35 compounds from patent publication US10584115B2, “Substituted pyridine and pyrazine BMI-1 inhibitors” (PTC Therapeutics, Inc., priority 2013, dated 2020).

SMILES strings stand for the structures. pEC50: −log10 of the molar value.

The test system of the assay is Bmi-1 protein. The experiment in a line: Sandwich ELISA Assay (Bmi-1 protein level in HT-1080 cells after compound treatment). Format: cell-based. The note with it: Table 1, Bmi-1 sandwich ELISA, read-out: ELISA EC50 value for Bmi-1 protein. Put shortly: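 Sandwich ELISA quantified Bmi-1 protein against recombinant standard (125–8000 pg/mL), with lysates captured overnight at 4 °C and signal by HRP/TMB at 450 nm (570 nm reference). Lysates came from HT-1080 cells incubated 40–48 h with test compounds in 0.5% DMSO.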
On to `Cc1cc(-c2cncc(Nc3ccc(C(F)(F)F)cc3)n2)ccn1` [compound 353, 6-(2-methylpyridin-4-yl)-N-[4-(trifluoromethyl)phenyl]pyrazin-2-amine], for which the pEC50 was 5.52 to 7.00.
Take `FC(F)(F)c1ccc(Nc2cncc(-c3ccnc(-c4ccnc(Cl)c4)c3)n2)cc1` [compound 354, 6-(2′-chloro-2,4′-bipyridin-4-yl)-N-[4-(trifluoromethyl)phenyl]pyrazin-2-amine]: the pEC50 is 5.52 to 7.00.
Turning to `Cc1nc2cc(OC(F)(F)F)ccc2n1-c1cncc(Nc2ccc(C(F)(F)F)cc2)n1` [compound 356, 6-[2-methyl-5-(trifluoromethoxy)-1H-benzimidazol-1-yl]-N-[4-(trifluoromethyl)phenyl]pyrazin-2-amine], the pEC50 was 5.52 to 7.00.
As to `Cc1nc2ccc(OC(F)(F)F)cc2n1-c1cncc(Nc2ccc(C(F)(F)F)cc2)n1` [compound 357, 6-[2-methyl-6-(trifluoromethoxy)-1H-benzimidazol-1-yl]-N-[4-(trifluoromethyl)phenyl]pyrazin-2-amine], the pEC50 was 5.52 to 7.00.
As to `Cc1nc2cccc(F)c2n1-c1cncc(Nc2ccc(C(F)(F)F)cc2)n1` [compound 358, 6-(7-fluoro-2-methyl-1H-benzimidazol-1-yl)-N-[4-(trifluoromethyl)phenyl]pyrazin-2-amine], the negative-log EC50 (pEC50) was 7.00 to 8.00.
The value for `Cc1nc2cc(F)c(F)cc2n1-c1cc(C#N)cc(Nc2ccc(C(F)(F)F)c(F)c2)n1` [compound 359, 2-(5,6-difluoro-2-methyl-1H-benzimidazol-1-yl)-6-{[3-fluoro-4-(trifluoromethyl)phenyl]amino}pyridine-4-carbonitrile] was 5.52 to 7.00.
On to `Cc1nc2ncccc2n1-c1cncc(NC2=CCC(F)(C(F)(F)F)C=C2)n1` (centres unmarked) [compound 360, N-[4-fluoro-4-(trifluoromethyl)phenyl]-6-(2-methyl-1H-imidazo[4,5-b]pyridin-1-yl)pyrazin-2-amine], for which the pEC50 was 7.00 to 8.00.
Turning to `Cc1nc2ncc(Cl)cc2n1-c1cncc(Nc2ccc(C(F)(F)F)cc2)n1` [compound 361, 6-(6-chloro-2-methyl-1H-imidazo[4,5-b]pyridin-1-yl)-N-[4-(trifluoromethyl)phenyl]pyrazin-2-amine], the negative-log EC50 (pEC50) is 8.00 to 9.00.
The same measure for `Nc1cc(Nc2ccc(C(F)(F)F)c(F)c2)nc(-c2c(C3CC3)nc3ccc(F)cn23)c1` [compound 364, 6-(2-cyclopropyl-6-fluoroimidazo[1,2-a]pyridin-3-yl)-N^2-[3-fluoro-4-(trifluoromethyl)phenyl]pyridine-2,4-diamine]: 7.00 to 8.00; for `CCc1nc2cnccc2n1-c1cncc(Nc2ccc(C(F)(F)F)cc2)n1` [compound 370, 6-(2-ethyl-1H-imidazo[4,5-c]pyridin-1-yl)-N-[4-(trifluoromethyl)phenyl]pyrazin-2-amine]: 5.52 to 7.00.
With `Cc1nc2ncncc2n1-c1cncc(Nc2ccc(C(F)(F)F)cc2)n1` [compound 371, 6-(8-methyl-7H-purin-7-yl)-N-[4-(trifluoromethyl)phenyl]pyrazin-2-amine], the pEC50 is 5.52 to 7.00.
The same measure for `Cc1nc2ncc(F)cc2n1-c1cncc(Nc2ccc(C(F)(F)F)c(F)c2)n1` [compound 373, 6-(6-fluoro-2-methyl-1H-imidazo[4,5-b]pyridin-1-yl)-N-[3-fluoro-4-(trifluoromethyl)phenyl]pyrazin-2-amine]: 7.00 to 8.00.
Regarding `CCc1nc2ncc(F)cc2n1-c1cncc(Nc2ccc(C(F)(F)F)c(F)c2)n1` [compound 374, 6-(2-ethyl-6-fluoro-1H-imidazo[4,5-b]pyridin-1-yl)-N-[3-fluoro-4-(trifluoromethyl)phenyl]pyrazin-2-amine], the negative-log EC50 (pEC50) was 7.00 to 8.00.
For `C=CCN1CCc2c(nc(C)n2-c2cncc(Nc3ccc(C(F)(F)F)cc3)n2)C1` [compound 375], the pEC50 is 5.52 to 7.00.
For the compound `COc1ccc2nc(C)c(-c3cncc(Nc4ccc(C(F)(F)F)cc4)n3)n2c1` [compound 376, 6-(6-methoxy-2-methylimidazo[1,2-a]pyridin-3-yl)-N-[4-(trifluoromethyl)phenyl]pyrazin-2-amine], the pEC50 was 7.00 to 8.00.
For `COc1ccc2nc(C)c(-c3cncc(Nc4ccc(OC(F)(F)F)cc4)n3)n2c1` [compound 377, 6-(6-methoxy-2-methylimidazo[1,2-a]pyridin-3-yl)-N-[4-(trifluoromethoxy)phenyl]pyrazin-2-amine], the pEC50 was 7.00 to 8.00.
The value for `Cc1nc2ccc(O)cn2c1-c1cncc(Nc2ccc(C(F)(F)F)cc2)n1` [compound 378, 2-methyl-3-(6-{[4-(trifluoromethyl)phenyl]amino}pyrazin-2-yl)imidazo[1,2-a]pyridin-6-ol] was 7.00 to 8.00; that for `COc1ccc2nc(C)c(-c3cc(C#N)cc(Nc4ccc(C(F)(F)F)cc4)n3)n2c1` [compound 379, 2-(6-methoxy-2-methylimidazo[1,2-a]pyridin-3-yl)-6-{[4-(trifluoromethyl)phenyl]amino}pyridine-4-carbonitrile] was 7.00 to 8.00; that for `COc1ccc2nc(C)c(-c3cc(C#N)cc(Nc4ccc(OC(F)(F)F)cc4)n3)n2c1` [compound 380, 2-(6-methoxy-2-methylimidazo[1,2-a]pyridin-3-yl)-6-{[4-(trifluoromethoxy)phenyl]amino}pyridine-4-carbonitrile] was 7.00 to 8.00.
On to `Cc1nc2ccc(O)cn2c1-c1cc(C#N)cc(Nc2ccc(C(F)(F)F)cc2)n1` [compound 381, 2-(6-hydroxy-2-methylimidazo[1,2-a]pyridin-3-yl)-6-{[4-(trifluoromethyl)phenyl]amino}pyridine-4-carbonitrile], for which the negative logarithm of the EC50 (pEC50) is 7.00 to 8.00.
As for `N#Cc1cc(Nc2ccc(C(F)(F)F)cc2)nc(-c2c(CO)nc3ccc(F)cn23)c1` [compound 383, 2-[6-fluoro-2-(hydroxymethyl)imidazo[1,2-a]pyridin-3-yl]-6-{[4-(trifluoromethyl)phenyl]amino}pyridine-4-carbonitrile], the negative logarithm of the EC50 (pEC50) was 7.00 to 8.00.
For `FC(F)(F)c1ccc(Nc2cncc(-c3ccnc4ccccc34)n2)cc1` [compound 384, 6-(quinolin-4-yl)-N-[4-(trifluoromethyl)phenyl]pyrazin-2-amine], the pEC50 was 5.52 to 7.00.
In the case of `FC(F)(F)c1ccc(Nc2cncc(-c3ccnc4cc(Cl)ccc34)n2)cc1` [compound 385, 6-(7-chloroquinolin-4-yl)-N-[4-(trifluoromethyl)phenyl]pyrazin-2-amine], the pEC50 was 5.52 to 7.00.
As for `Cc1cc2nc(C)n(-c3cncc(Nc4ccc(C(F)(F)F)cc4)n3)c2cc1C` [compound 386, N-[4-(trifluoromethyl)phenyl]-6-(2,5,6-trimethyl-1H-benzimidazol-1-yl)pyrazin-2-amine], the negative-log EC50 (pEC50) is 5.52 to 7.00.
Turning to `Cc1cc2nc(C)n(-c3cncc(Nc4ccc(OC(F)(F)F)cc4)n3)c2cc1C` [compound 387, N-[4-(trifluoromethoxy)phenyl]-6-(2,5,6-trimethyl-1H-benzimidazol-1-yl)pyrazin-2-amine], the pEC50 was 5.52 to 7.00.
As for `Cc1nc2ccc(Br)cc2n1-c1cncc(Nc2ccc(C(F)(F)F)cc2)n1` [compound 388, 6-(6-bromo-2-methyl-1H-benzimidazol-1-yl)-N-[4-(trifluoromethyl)phenyl]pyrazin-2-amine], the pEC50 is 7.00 to 8.00.
Turning to `Cc1nc2ccccc2n1-c1cncc(Nc2ccc(C(F)(F)F)c(Cl)c2)n1` [compound 390, N-[3-chloro-4-(trifluoromethyl)phenyl]-6-(2-methyl-1H-benzimidazol-1-yl)pyrazin-2-amine], the negative-log EC50 (pEC50) is 7.00 to 8.00.
For the compound `N#Cc1cc(Nc2ccc(OC(F)F)cc2)nc(-c2c(CO)nc3ccc(F)cn23)c1` [compound 393, 2-{[4-(difluoromethoxy)phenyl]amino}-6-[6-fluoro-2-(hydroxymethyl)imidazo[1,2-a]pyridin-3-yl]pyridine-4-carbonitrile], the pEC50 was 7.00 to 8.00.
The value for `N#Cc1cc(Nc2ccc(OC(F)F)c(F)c2)nc(-c2c(CO)nc3ccc(F)cn23)c1` [compound 394, 2-{[4-(difluoromethoxy)-3-fluorophenyl]amino}-6-[6-fluoro-2-(hydroxymethyl)imidazo[1,2-a]pyridin-3-yl]pyridine-4-carbonitrile] was 7.00 to 8.00.
Turning to `N#Cc1cc(Nc2ccc(C(F)(F)F)c(F)c2)nc(-c2c(CO)nc3ccc(F)cn23)c1` [compound 395, 2-[6-fluoro-2-(hydroxymethyl)imidazo[1,2-a]pyridin-3-yl]-6-{[3-fluoro-4-(trifluoromethyl)phenyl]amino}pyridine-4-carbonitrile], the pEC50 is 5.52 to 7.00.
Consider `Cc1nc2ccc(O)cn2c1-c1cc(C#N)cc(Nc2ccc(OC(F)(F)F)cc2)n1` [compound 396, 2-(6-hydroxy-2-methylimidazo[1,2-a]pyridin-3-yl)-6-{[4-(trifluoromethoxy)phenyl]amino}pyridine-4-carbonitrile], for which the pEC50 was 7.00 to 8.00.
The same measure for `Cc1nc2ccc(NCCO)cc2n1-c1cncc(Nc2ccc(C(F)(F)F)cc2)n1` [compound 397, 2-{[2-methyl-1-(6-{[4-(trifluoromethyl)phenyl]amino}pyrazin-2-yl)-1H-benzimidazol-6-yl]amino}ethanol]: 5.52 to 7.00.
The same measure for `CCc1nc2c(n1-c1cncc(Nc3ccc(C(F)(F)F)cc3)n1)CN(C)CC2` [compound 398, 6-(2-ethyl-5-methyl-4,5,6,7-tetrahydro-3H-imidazo[4,5-c]pyridin-3-yl)-N-[4-(trifluoromethyl)phenyl]pyrazin-2-amine]: 5.52 to 7.00; for `COCCn1nc(C)c(-c2cncc(Nc3ccc(C(F)(F)F)cc3)n2)c1C` [compound 399, 6-[1-(2-methoxyethyl)-3,5-dimethyl-1H-pyrazol-4-yl]-N-[4-(trifluoromethyl)phenyl]pyrazin-2-amine]: 8.00 to 9.00.
The same measure for `Cc1nc2cc(F)c(F)cc2n1-c1cncc(Nc2ccc(Cl)nc2)n1` [compound 405, N-(6-chloropyridin-3-yl)-6-(5,6-difluoro-2-methyl-1H-benzimidazol-1-yl)pyrazin-2-amine]: 5.52 to 7.00.
